Measured values reported in PubChem BioAssay AID1259407 (Chemical Carcinogenesis Research Information System (CCRIS), 2018).
The source made the active and inactive calls. No rule for the calls is given here.

Test system: CCRIS mutagenicity, Ames/micronucleus/aberration tests
Test: CCRIS mutagenicity studies
[1] = Test System: AMES SALMONELLA TYPHIMURIUM, Strain/Indicator: TA102, Metabolic Activation: NONE, Method: STANDARD PLATE
[2] = Test System: AMES SALMONELLA TYPHIMURIUM, Strain/Indicator: TA97, Metabolic Activation: NONE, Method: STANDARD PLATE
[3] = Test System: AMES SALMONELLA TYPHIMURIUM, Strain/Indicator: TA98, Metabolic Activation: NONE, Method: STANDARD PLATE
[4] = Test System: AMES SALMONELLA TYPHIMURIUM, Strain/Indicator: TA100, Metabolic Activation: NONE, Method: STANDARD PLATE

CC1COc2c(N3CCN(C)CC3)c(F)cc3c(=O)c(C(=O)O)cn1c23 (stereo unspecified)
mutagenic call (End Point: AMES SALMONELLA TYPHIMURIUM, Test System: TA98, Metabolic Activation: NONE, Method: STANDARD PLATE): active; positive | mutagenic call (End Point: AMES SALMONELLA TYPHIMURIUM, Test System: TA100, Metabolic Activation: NONE, Method: STANDARD PLATE): inactive; negative | mutagenic call (Test System: AMES SALMONELLA TYPHIMURIUM, Strain/Indicator: HISG428, Metabolic Activation: NONE, Method: STANDARD PLATE): inactive; negative | mutagenic call (Test System: AMES SALMONELLA TYPHIMURIUM, Strain/Indicator: TA92, Metabolic Activation: NONE, Method: STANDARD PLATE): active; positive | mutagenic call [1]: active; positive | mutagenic call (Test System: AMES SALMONELLA TYPHIMURIUM, Strain/Indicator: TA103, Metabolic Activation: NONE, Method: STANDARD PLATE): active; positive | mutagenic call (Test System: AMES SALMONELLA TYPHIMURIUM, Strain/Indicator: TA104, Metabolic Activation: NONE, Method: STANDARD PLATE): inactive; negative | mutagenic call (Test System: AMES SALMONELLA TYPHIMURIUM, Strain/Indicator: TA2638, Metabolic Activation: NONE, Method: STANDARD PLATE): active; positive | mutagenic call (Test System: AMES SALMONELLA TYPHIMURIUM, Strain/Indicator: TA2661, Metabolic Activation: NONE, Method: STANDARD PLATE): inactive; negative | mutagenic call (Test System: AMES SALMONELLA TYPHIMURIUM, Strain/Indicator: TA2662, Metabolic Activation: NONE, Method: STANDARD PLATE): active; positive | mutagenic call (Test System: AMES SALMONELLA TYPHIMURIUM, Strain/Indicator: TA2678, Metabolic Activation: NONE, Method: STANDARD PLATE): inactive; negative | mutagenic call (Test System: CHINESE HAMSTER V-79, Strain/Indicator: V-79 (HPRT)/6-THIOGUANINE, Metabolic Activation: NONE): inactive; negative | mutagenic call (Test System: MOUSE LYMPHOMA, Strain/Indicator: L5178Y (HPRT)/6-THIOGUANINE, Metabolic Activation: NONE, Method: FLUCTUATION TEST): inactive; negative | mutagenic call (Test System: MOUSE LYMPHOMA, Strain/Indicator: L5178Y (TK+/TK-), Metabolic Activation: NONE, Method: FLUCTUATION TEST): inactive; negative

CC1(C)[C@H](C(=O)O[C@H](C#N)c2cccc(Oc3ccccc3)c2)[C@@H]1C=C(Cl)Cl
mutagenic call (End Point: In vitro micronucleus, Test System: Human peripheral blood lymphocytes): active; positive. commercial product containing 10% alpha-cypermethrin in xylene emulsi

Cc1nc2c(c3[nH]c4ccccc4c13)C(=O)C(N1CC1)=CC2=O
mutagenic call [2]: active; positive | mutagenic call (Test System: AMES SALMONELLA TYPHIMURIUM, Strain/Indicator: TA97, Metabolic Activation: RAT, LIVER, S-9, AROCLOR 1254, Method: STANDARD PLATE): active; positive | mutagenic call [3]: active; positive | mutagenic call (Test System: AMES SALMONELLA TYPHIMURIUM, Strain/Indicator: TA98, Metabolic Activation: RAT, LIVER, S-9, AROCLOR 1254, Method: STANDARD PLATE): active; positive | mutagenic call [4]: active; positive | mutagenic call (Test System: AMES SALMONELLA TYPHIMURIUM, Strain/Indicator: TA100, Metabolic Activation: RAT, LIVER, S-9, AROCLOR 1254, Method: STANDARD PLATE): active; positive | mutagenic call [1]: active; positive | mutagenic call (Test System: AMES SALMONELLA TYPHIMURIUM, Strain/Indicator: TA102, Metabolic Activation: RAT, LIVER, S-9, AROCLOR 1254, Method: STANDARD PLATE): active; positive

CCCCOC(=O)CCCCCCCCC(=O)OCCCC
mutagenic call [2]: inactive; negative | mutagenic call (Test System: AMES SALMONELLA TYPHIMURIUM, Strain/Indicator: TA97, Metabolic Activation: S-9, Method: STANDARD PLATE): inactive; negative | mutagenic call [3]: inactive; negative | mutagenic call (Test System: AMES SALMONELLA TYPHIMURIUM, Strain/Indicator: TA98, Metabolic Activation: S-9, Method: STANDARD PLATE): inactive; negative | mutagenic call [4]: inactive; negative | mutagenic call (Test System: AMES SALMONELLA TYPHIMURIUM, Strain/Indicator: TA100, Metabolic Activation: S-9, Method: STANDARD PLATE): inactive; negative | mutagenic call [1]: inactive; negative | mutagenic call (Test System: AMES SALMONELLA TYPHIMURIUM, Strain/Indicator: TA102, Metabolic Activation: S-9, Method: STANDARD PLATE): inactive; negative | mutagenic call (Test System: E.COLI, Strain/Indicator: WP2 (PKM101), Metabolic Activation: NONE, Method: STANDARD PLATE): inactive; negative | mutagenic call (Test System: E.COLI, Strain/Indicator: WP2 (PKM101), Metabolic Activation: S-9, Method: STANDARD PLATE): inactive; negative

O=C(Nc1ccccc1)c1cc2ccccc2c(N=Nc2cc(Cl)ccc2Cl)c1O
mutagenic call (Test System: AMES SALMONELLA TYPHIMURIUM, Strain/Indicator: TA98, Metabolic Activation: HAMSTER, LIVER, S-9, AROCLOR 1254 (10%), Method: PREINCUBATION): inactive; negative | mutagenic call (Test System: AMES SALMONELLA TYPHIMURIUM, Strain/Indicator: TA98, Metabolic Activation: HAMSTER, LIVER, S-9, AROCLOR 1254 (30%), Method: PREINCUBATION): active; positive | mutagenic call (Test System: AMES SALMONELLA TYPHIMURIUM, Strain/Indicator: TA98, Metabolic Activation: NONE, Method: PREINCUBATION): inactive; negative | mutagenic call (Test System: AMES SALMONELLA TYPHIMURIUM, Strain/Indicator: TA98, Metabolic Activation: RAT, LIVER, S-9, AROCLOR 1254 (30%), Method: PREINCUBATION): inactive; negative | mutagenic call (Test System: AMES SALMONELLA TYPHIMURIUM, Strain/Indicator: TA100, Metabolic Activation: HAMSTER, LIVER, S-9, AROCLOR 1254 (30%), Method: PREINCUBATION): inactive; negative | mutagenic call (Test System: AMES SALMONELLA TYPHIMURIUM, Strain/Indicator: TA100, Metabolic Activation: NONE, Method: PREINCUBATION): inactive; negative | mutagenic call (Test System: AMES SALMONELLA TYPHIMURIUM, Strain/Indicator: TA100, Metabolic Activation: RAT, LIVER, S-9, AROCLOR 1254 (30%), Method: PREINCUBATION): inactive; negative | mutagenic call (Test System: AMES SALMONELLA TYPHIMURIUM, Strain/Indicator: TA1538, Metabolic Activation: HAMSTER, LIVER, S-9, AROCLOR 1254 (30%), Method: PREINCUBATION): active; positive
